Reference: US20250249051A1, “MICROBIOME COMPOSITION FOR IMPROVING MUSCLE STRENGTH USING HEAT-TREATED FERMENTED CULTURE COMPLEX OF LACTIPLANTIBACILLUS PLANTARUM KM2” (KOOKMINBIO, CORP., priority 2024, published 2025)
Marks after values point to notes of the source that are not given here.

Tests used:
C57BL/6J mice [1] = assay: Body weight and body composition (DEXA) in dexamethasone-induced muscular atrophy mice; assay type: in vivo; settings: week 7, oral; KLP-KM2 900 and 1800 mg/kg, OXM 50 mg/kg; vs DEX group
Description: (§1) 7-week-old male C57BL/6J mice purchased from OrientBio were used as experimental animals. The environment of an animal breeding room was controlled at temperature of 21±1° C. with relative humidity of 40˜60% and light/dark cycles of 12 hours/day, and feed and drinking water were allowed to be consumed freely. This test was approved by the Institutional Animal Care and Use Committee in Kookmin University (KMU-2023-05) and carried out in accordance with the standard operating instructions. […] Feed ingestion amount and body weight were measured once every two weeks.
Dual energy X-ray absorptiometry (DEXA; Medikors, Seongnam, Korea) was used at week 7 before the sacrifice of experimental animals to measure the body composition of mice, followed by analysis on the changes in muscle mass relative to the body weight.

C57BL/6J mice [2] = assay: Biochemical analysis of serum in dexamethasone-induced muscular atrophy mice; assay type: in vivo; settings: oxymetholone 50 mg/kg oral 8 weeks, DEX mice
Description: as §1
After sacrificing the mice, blood was drawn from the heart and immediately centrifuged (3,000×g, 10 min, 4° C.) to separate the plasma. Creatine phosphokinase (CPK), lactate dehydrogenase (LDH), aspartate aminotransferase (AST), alanine aminotransferase (ALT), and blood urea nitrogen (BUN) were measured using a chemical analyzer (Fuji DRI-CHEM 3500i, Fuji Photo Film, Ltd., Tokyo, Japan).

intestinal microflora = assay: Intestinal microflora analysis in animal model (shotgun metagenome sequencing); assay type: in vivo, mice; settings: genus level, compared to the DEX group
Description: as §1
To identify the effect of the sample on the intestinal microbiota of the animal model, the appendix was removed after animal sacrifice, DNA was extracted, and analysis was performed using Shotgun metagenome sequencing. The extracted DNA was subjected to adapter ligation using the Truseq Nano DNA prep kit for sequencing, and then 8 cycles of PCR were performed to create a library. […] Using Trimmomatic v0.39 (AM Bolger, M Lohse, B Usadel, 2014) for raw reads, removal of low-quality reads and adapters was followed, and in order to eliminate PhiX sequences added during sequencing, trimmed reads were aligned to the PhiX reference genome (NC_001422.1) using BWA v0.7.17-r1188 (Li, Heng, 2013) and then removed with SAMtools v1.15.1 (Li, Heng, et al., 2009). […]

Which results are given for `C[C@]12C/C(=C/O)C(=O)C[C@@H]1CC[C@@H]1[C@@H]2CC[C@@]2(C)[C@H]1CC[C@]2(C)O` [OXM, oxymetholone]?
muscle mass to the total body weight (DEXA) (C57BL/6J mice [1]): relatively significant increase compared to the DEX group; ALT (C57BL/6J mice [2]): 43.75 ± 7.96 ^a U/L; AST (C57BL/6J mice [2]): 58.88 ± 11.73 ^a U/L; BUN (C57BL/6J mice [2]): 24.74 ± 1.47 ^a mg/dL; CPK (C57BL/6J mice [2]): 99.13 ± 35.13 ^b U/L; LDH (C57BL/6J mice [2]): 211.38 ± 46.99 ^b U/L; proportion of Akkermansia (intestinal microflora): significantly reduced
